The nature of this data set: Solubility of BHET in different solvents (shaken 2 hours, analyzed by HPLC). It counts as physicochemical. The protocol: Solubility of BHET in Different Solvents
10 ml of the designated solvent was added to a scintillation vial with 2 g of BHET. The vial was placed in a shaker, shaken for 2 hours and the contents were analyzed by HPLC.

Results on 1 molecule are retold here after patent US9127136B1, “Purification of monomer from recycle polyesters” (SABIC Global Technologies B.V, priority 2014, dated 2015).

The structures appear in SMILES notation. Converted amounts (≈) assume the structure as drawn.

A word on the thermodynamic solubility: it is the concentration in solution at equilibrium with solid.

For the molecule `O=C(OCCO)c1ccc(C(=O)OCCO)cc1` [BHET, bis(2-hydroxyethyl) terephthalate], the “solubility of BHET in 45% THF/Hexanes (estimated)” value (solvent: 45% THF/Hexanes, estimated from 12.6% solubility in THF) was 5.67%. Moreover, the “% Solubility (w/v)” value reads like this: (solvent: Acetone) 9.09 % (w/v); (solvent: Acetonitrile) 4.98 % (w/v); (solvent: DMF) 60 % (w/v); (solvent: Dichloromethane) 1.12 % (w/v); (solvent: Ethanol) 8.61 % (w/v); (solvent: Methanol) 13.75 % (w/v). In addition, the “% Solubility (w/v)” value is, setting by setting: (solvent: THF) 12.6 % (w/v); (solvent: ethylene glycol) 2.81 % (w/v); (solvent: hexanes) “_~0 % (w/v)”; (solvent: iso-propanol) 6.16 % (w/v). The thermodynamic solubility at 2 h (thermodynamic from solid, solvent: water) came to 5000 µg/mL (≈ 19.7 mM).
